US20220031684A1, “PROPHYLACTIC EFFICACY OF SEROTONIN 4 RECEPTOR AGONISTS AGAINST STRESS” (THE TRUSTEES OF COLUMBIA UNIVERSITY IN THE CITY OF NEW YORK, priority 2019, published 2022)
Structures can show the parent of a compound that is named as a salt.

What was measured:
[1] = biological target: hERG (human Ether-a-go-go Related Gene) channels (Homo sapiens, UniProt Q12809); details: cited from earlier work
129S6/SvEv mice [2] = experiment: Forced swim test (FST) after CFC; assay type: in vivo
Protocol: (§1) This chronic CORT elevation dysregulates the hypothalamic-pituitary-adrenal axis (HPA) in a manner similar to that observed in clinical depression. The dose and duration of CORT treatment was selected based on previous studies. CORT (35 μg/ml, equivalent to about 5 mg/kg/day) dissolved in 0.45% hydroxypropyl-o-cyclodextrin (0-CD) or vehicle (VEH) (0.45% j-CD) was available ad libitum in the drinking water in opaque bottles to protect it from light. VEH- and CORT-treated water was changed every 3 days to prevent possible degradation. Contextual Fear Conditioning (CFC): A 3-shock CFC procedure was administered as previously published. Briefly, mice were placed into context A and administered 3 2-s shocks (0.75 mA) at 180 s, 240 s or 300 s following placement into context A. Mice were removed from the context 15 s following the termination of shock (at 317 s). For context retrieval, mice were placed back into context A for 300 s. Electrophysiology: Electrophysiology was conducted as previously described. Statistical Analysis: Results from data analyses are expressed as means±SEM. Alpha was set to 0.05 for all analyses. Data were analyzed using GraphPad Prism v7.0 or v8.0. For all experiments, unless otherwise noted, one- or two-way ANOVAs with repeated-measures were applied to the data as appropriate. Significant main effects and/or interactions were followed by Fisher's PLSD post hoc analysis or unpaired t-tests. Drugs: All drugs were prepared in physiological saline and all injections were administered intraperitoneally (i.p.) in volumes of 0.1 cc per […] body weight unless otherwise noted. Fluoxetine hydrochloride (Flx): Flx (BioTrend Chemicals AG, BG197, Zurich, Germany) was administered in the drinking water (18 mg/kg/day) for 3 weeks before the start of CORT. […] (R,S)-ketamine (K): (R,S)-ketamine (Ketaset III, Ketamine HCl injection, Fort Dodge Animal Health, Fort Dodge, Iowa) was administered in a single dose at 30 mg/kg of body weight 1 week before the start of CFC. […] PF-04995274: PF-04995274 (Sigma, Catalog No. 1331782-27-4, St. Louis, Mo.) was administered a single dose at 3 or 10 mg/kg of body weight 1 week before the start of CFC. PF-04995274 was dissolved in saline using an ultrasonic homogenizer (BioLogics, Model 3000, Manassas, Va.). Osmotic minipump implantation: ALZET osmotic minipumps (Model 2004, […], 28 days) were implanted subcutaneously under isoflurane anesthesia as previously described [S2]. Osmotic minipumps were rotated under the skin two to three times per week. Behavioral Assays: All experiments were approved by the Institutional Animal Care and Use Committee (IACUC) at the New York Psychiatric Institute (NYSPI). Elevated Plus Maze (EPM): Testing was performed as previously described [S3]. Briefly, the maze is a plus-cross-shaped apparatus consisting of four arms, two open and two enclosed by walls, linked by a central platform at a height of 50 cm from the floor. Mice were individually placed in the center of the maze facing an open arm and were allowed to explore the maze for 5 min. The time spent in and the number of entries into the open arms was used as an anxiety index. Videos were scored using ANY-maze behavior tracking software (Stoelting, Wood Dale, Ill.). Novelty-Suppressed Feeding: The NSF is a conflict test that elicits competing motivations: the drive to eat and the fear of venturing into the center of a brightly lit arena. The latency to feed is used as an index of anxiety-like behavior, because classical anxiolytic drugs decrease this measure. The NSF test was carried out during an 8 min period as previously described [S3]. Briefly, the testing apparatus consisted of a plastic box (50×50×20 cm), the floor of which was covered with approximately 2 cm of bedding. For 129S6/SvEv experiments, mice were food restricted for 12 h. For the C57BL/6N experiments, mice were food restricted for 24 h. […]

129S6/SvEv mice [3] = experiment: 3-shock contextual fear conditioning (CFC); assay type: in vivo
Protocol: as §1

CA3 pyramidal cells = experiment: Whole-cell voltage clamp recordings of spontaneous EPSCs in CA3 slices; assay type: cell-based, mice; details: (R,S)-ketamine 30 mg/kg or prucalopride 3 mg/kg injected 1 week before slicing
Protocol: as §1

5-HT4R = details: cited from earlier work
[4] = FIG. 4 cohort, Male, FIG. 4F, RMANOVA, Fisher's LSD
[5] = FIG. 4 cohort, Male, FIG. 4G, ANOVA, Fisher's LSD
[6] = FIG. 4 cohort, Male, FIG. 4C, RMANOVA, Fisher's LSD
[7] = FIG. 4 cohort, Male, FIG. 4D, ANOVA, Fisher's LSD

hERG (human Ether-a-go-go Related Gene) channels, sequence (Q12809 whole entry): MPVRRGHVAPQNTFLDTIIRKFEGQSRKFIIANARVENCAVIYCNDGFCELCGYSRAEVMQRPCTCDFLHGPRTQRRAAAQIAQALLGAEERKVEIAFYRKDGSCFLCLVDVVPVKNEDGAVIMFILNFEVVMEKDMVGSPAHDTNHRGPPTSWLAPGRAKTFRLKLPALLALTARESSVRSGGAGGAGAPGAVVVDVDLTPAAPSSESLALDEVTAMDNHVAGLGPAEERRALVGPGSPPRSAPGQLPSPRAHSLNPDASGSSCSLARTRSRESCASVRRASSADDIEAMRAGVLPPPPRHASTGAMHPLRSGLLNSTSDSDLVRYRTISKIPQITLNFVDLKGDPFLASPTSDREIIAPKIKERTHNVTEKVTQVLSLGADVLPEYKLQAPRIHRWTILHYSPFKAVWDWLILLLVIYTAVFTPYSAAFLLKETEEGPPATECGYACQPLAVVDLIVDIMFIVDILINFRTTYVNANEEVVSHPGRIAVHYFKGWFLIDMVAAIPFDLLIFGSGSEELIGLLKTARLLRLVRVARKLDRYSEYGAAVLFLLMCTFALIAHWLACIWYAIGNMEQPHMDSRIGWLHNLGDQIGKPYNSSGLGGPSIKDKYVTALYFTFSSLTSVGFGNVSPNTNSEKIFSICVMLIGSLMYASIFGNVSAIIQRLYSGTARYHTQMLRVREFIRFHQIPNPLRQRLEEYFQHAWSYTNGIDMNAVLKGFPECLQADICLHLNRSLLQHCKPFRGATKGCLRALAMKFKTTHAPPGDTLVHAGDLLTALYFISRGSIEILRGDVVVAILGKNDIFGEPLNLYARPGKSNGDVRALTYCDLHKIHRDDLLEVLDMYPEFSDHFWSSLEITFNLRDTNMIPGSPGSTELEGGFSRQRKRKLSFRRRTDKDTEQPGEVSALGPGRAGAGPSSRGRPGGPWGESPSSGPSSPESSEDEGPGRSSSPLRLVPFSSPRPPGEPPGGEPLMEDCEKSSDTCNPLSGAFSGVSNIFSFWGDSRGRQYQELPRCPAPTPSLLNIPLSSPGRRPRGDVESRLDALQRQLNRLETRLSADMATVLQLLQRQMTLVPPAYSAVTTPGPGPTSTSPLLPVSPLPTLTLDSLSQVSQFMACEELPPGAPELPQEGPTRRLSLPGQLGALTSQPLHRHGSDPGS

In the case of `COCCCN1CCC(NC(=O)c2cc(Cl)c(N)c3c2OCC3)CC1` [Prucalopride, 4-amino-5-chloro-2,3-dihydro-N-[1-3-methoxypropyl)-4-piperidinyl]-7-benzofuran carboxamide monohydrochloride], the “affinity for the hERG channels” value [1] is listed as “no affinity”, the “p, FST Day 2 Immobility Time (sec), Prucalopride (3 mg/kg) vs. PF04995274 (3 mg/kg)” value (129S6/SvEv mice [2]; [4]) is listed as 0.2475 and the “p, FST Day 2 Immobility Time (sec), Prucalopride (3 mg/kg) vs. PF04995274 (10 mg/kg)” value (129S6/SvEv mice [2]; [4]) is listed as 0.4224. The “p, FST Day 2 Immobility Time (sec), Prucalopride (3 mg/kg) vs. Prucalopride (10 mg/kg)” value (129S6/SvEv mice [2]; [4]) was 0.0568, the “p, FST Day 2 Immobility Time (sec), Prucalopride (10 mg/kg) vs. PF04995274 (3 mg/kg)” value (129S6/SvEv mice [2]; [4]) was 0.6674 and the “p, FST Day 2 Immobility Time (sec), Prucalopride (10 mg/kg) vs. PF04995274 (10 mg/kg)” value (129S6/SvEv mice [2]; [4]) was 0.0209. For the same molecule, the “p, FST Day 2 Immobility Time (sec), Saline vs. Prucalopride (3 mg/kg)” value (129S6/SvEv mice [2]; [4]) was 0.0052, the “p, FST Day 2 Immobility Time (sec), Saline vs. Prucalopride (10 mg/kg)” value (129S6/SvEv mice [2]; [4]) was 0.1772 and the “p, FST Day 2 Immobility Time (min 3-6) (sec), Prucalopride (3 mg/kg) vs. PF04995274 (3 mg/kg)” value (129S6/SvEv mice [2]; [5]) was 0.4089. The “p, FST Day 2 Immobility Time (min 3-6) (sec), Prucalopride (3 mg/kg) vs. PF04995274 (10 mg/kg)” value (129S6/SvEv mice [2]; [5]) was 0.3387, the “p, FST Day 2 Immobility Time (min 3-6) (sec), Prucalopride (3 mg/kg) vs. Prucalopride (10 mg/kg)” value (129S6/SvEv mice [2]; [5]) was 0.0622 and the “p, FST Day 2 Immobility Time (min 3-6) (sec), Prucalopride (10 mg/kg) vs. PF04995274 (3 mg/kg)” value (129S6/SvEv mice [2]; [5]) was 0.4653. The “p, FST Day 2 Immobility Time (min 3-6) (sec), Saline vs. Prucalopride (3 mg/kg)” value (129S6/SvEv mice [2]; [5]) was 0.0093, the “p, FST Day 2 Immobility Time (min 3-6) (sec), Saline vs. Prucalopride (10 mg/kg)” value (129S6/SvEv mice [2]; [5]) was 0.2443 and the “p, FST Day 2 Immobility Time (min 3-6) (sec), Prucalopride (10 mg/kg) vs. PF04995274” value (129S6/SvEv mice [2]; FIG. 4 cohort, Male, FIG. 4G, ANOVA, Fisher's LSD, PF04995274 dose stands below the shown rows) was 0.0156. The “immobility, FST day 1” value (129S6/SvEv mice [2]; male 129S6/SvEv, (R,S)-ketamine 30, prucalopride 3 or 10, PF-04995274 3 or 10 mg/kg) was “comparable levels of immobility”, the “immobility time, FST day 2 vs saline” value (129S6/SvEv mice [2]; male 129S6/SvEv, single injection 1 week before CFC, 3 mg/kg) was “decreased immobility time” and the “p, CFC Re-exposure Freezing (%), Prucalopride (3 mg/kg) vs. PF04995274 (3 mg/kg)” value (129S6/SvEv mice [3]; [6]) was 0.0014. The “p, CFC Re-exposure Freezing (%), Prucalopride (3 mg/kg) vs. PF04995274 (10 mg/kg)” value (129S6/SvEv mice [3]; [6]) was 0.2229, the “p, CFC Re-exposure Freezing (%), Prucalopride (3 mg/kg) vs. Prucalopride (10 mg/kg)” value (129S6/SvEv mice [3]; [6]) was 0.0004 and the “p, CFC Re-exposure Freezing (%), Prucalopride (10 mg/kg) vs. PF04995274 (3 mg/kg)” value (129S6/SvEv mice [3]; [6]) was 0.7981. The “p, CFC Re-exposure Freezing (%), Prucalopride (10 mg/kg) vs. PF04995274 (10 mg/kg)” value (129S6/SvEv mice [3]; [6]) was 0.0568, the “p, CFC Re-exposure Freezing (%), Saline vs. Prucalopride (3 mg/kg)” value (129S6/SvEv mice [3]; [6]) was 0.0004 and the “p, CFC Re-exposure Freezing (%), Saline vs. Prucalopride (10 mg/kg)” value (129S6/SvEv mice [3]; [6]) was 0.4723. The “p, CFC Re-exposure, Prucalopride (3 mg/kg) vs. PF04995274 (3 mg/kg)” value (129S6/SvEv mice [3]; [7]) was 0.0014, the “p, CFC Re-exposure, Prucalopride (3 mg/kg) vs. PF04995274 (10 mg/kg)” value (129S6/SvEv mice [3]; [7]) was 0.2229 and the “p, CFC Re-exposure, Prucalopride (3 mg/kg) vs. Prucalopride (10 mg/kg)” value (129S6/SvEv mice [3]; [7]) was 0.0004. The “p, CFC Re-exposure, Prucalopride (10 mg/kg) vs. PF04995274 (3 mg/kg)” value (129S6/SvEv mice [3]; [7]) was 0.7981, the “p, CFC Re-exposure, Prucalopride (10 mg/kg) vs. PF04995274 (10 mg/kg)” value (129S6/SvEv mice [3]; [7]) was 0.0568 and the “p, CFC Re-exposure, Saline vs. Prucalopride (3 mg/kg)” value (129S6/SvEv mice [3]; [7]) was 0.0004. For the same molecule, the “p, CFC Re-exposure, Saline vs. Prucalopride (10 mg/kg)” value (129S6/SvEv mice [3]; [7]) was 0.4723, the “freezing during CFC training” value (129S6/SvEv mice [3]; male 129S6/SvEv, (R,S)-ketamine 30, prucalopride 3 or 10, PF-04995274 3 or 10 mg/kg, 1 week before CFC, vs saline) was “comparable levels of freezing” and the “freezing at re-exposure to the training context (learned fear) vs saline” value (129S6/SvEv mice [3]; male 129S6/SvEv, single i.p. injection 1 week before CFC, re-exposure 5 days later, 3 mg/kg) was “attenuated learned fear”. The “average EPSC amplitude vs saline” value (CA3 pyramidal cells) was “no differences”, the “large AMPA receptor-mediated bursts of EPSCs” value (CA3 pyramidal cells) was “not present” and the “number of EPSCs vs saline” value (CA3 pyramidal cells) was “no differences”. For the same molecule, the “Affinity (pKi)” value (5-HT4R) was 8.1-8.6.
